Test results as given in PubChem BioAssay (NCI).
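The compound was tested at five concentrations on cells cultured in 96-well plates, with a 48-hour exposure period. TGI marks complete inhibition of growth.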

Tested on: RPMI-8226 leukemia
Test: growth of human tumour cells (NCI), 48 h

SMILES | TGI [µM]
CC(=O)n1c2c(c(=O)n1-c1ccccc1)S(=O)CCC2 (centres undefined) | 27.9
CC(=O)OC1(C#N)CC2OC1C1C2N=NN1C(=O)OC(C)(C)C (centres undefined) | > 100
O=c1[nH]cc(COCCO)c(=O)[nH]1 | > 100

Tested on: RXF 393 renal
Test: growth of human tumour cells (NCI), 48 h

SMILES | TGI [µM]
CC(=O)n1c2c(c(=O)n1-c1ccccc1)S(=O)CCC2 (centres undefined) | > 68.4
CC(=O)OC1(C#N)CC2OC1C1C2N=NN1C(=O)OC(C)(C)C (centres undefined) | > 100
O=C1CC(C[C@H](O)C2CCCCC2O)CC(=O)N1Cc1ccccc1 (some centres undefined) | > 100
O=c1[nH]cc(COCCO)c(=O)[nH]1 | > 100

Tested on: UACC-62 melanoma
Test: growth of human tumour cells (NCI), 48 h

SMILES | TGI [µM]
CC(=O)n1c2c(c(=O)n1-c1ccccc1)S(=O)CCC2 (centres undefined) | > 100
CC(=O)OC1(C#N)CC2OC1C1C2N=NN1C(=O)OC(C)(C)C (centres undefined) | 45.9
O=C1CC(C[C@H](O)C2CCCCC2O)CC(=O)N1Cc1ccccc1 (some centres undefined) | > 100
O=c1[nH]cc(COCCO)c(=O)[nH]1 | > 100

Tested on: HOP-62 NSCLC
Test: growth of human tumour cells (NCI), 48 h

SMILES | TGI [µM]
CC(=O)n1c2c(c(=O)n1-c1ccccc1)S(=O)CCC2 (centres undefined) | 28.2
CC(=O)OC1(C#N)CC2OC1C1C2N=NN1C(=O)OC(C)(C)C (centres undefined) | > 100
O=C1CC(C[C@H](O)C2CCCCC2O)CC(=O)N1Cc1ccccc1 (some centres undefined) | > 100
O=c1[nH]cc(COCCO)c(=O)[nH]1 | > 100

Tested on: SN12C renal
Test: growth of human tumour cells (NCI), 48 h

SMILES | TGI [µM]
CC(=O)n1c2c(c(=O)n1-c1ccccc1)S(=O)CCC2 (centres undefined) | > 100
CC(=O)OC1(C#N)CC2OC1C1C2N=NN1C(=O)OC(C)(C)C (centres undefined) | > 100
O=C1CC(C[C@H](O)C2CCCCC2O)CC(=O)N1Cc1ccccc1 (some centres undefined) | > 100
O=c1[nH]cc(COCCO)c(=O)[nH]1 | > 100

Tested on: MOLT-4 leukemia
Test: growth of human tumour cells (NCI), 48 h

SMILES | TGI [µM]
CC(=O)n1c2c(c(=O)n1-c1ccccc1)S(=O)CCC2 (centres undefined) | 6.9
CC(=O)OC1(C#N)CC2OC1C1C2N=NN1C(=O)OC(C)(C)C (centres undefined) | > 100
O=C1CC(C[C@H](O)C2CCCCC2O)CC(=O)N1Cc1ccccc1 (some centres undefined) | > 100
O=c1[nH]cc(COCCO)c(=O)[nH]1 | > 100

Tested on: EKVX NSCLC
Test: growth of human tumour cells (NCI), 48 h

SMILES | TGI [µM]
CC(=O)n1c2c(c(=O)n1-c1ccccc1)S(=O)CCC2 (centres undefined) | > 100
CC(=O)OC1(C#N)CC2OC1C1C2N=NN1C(=O)OC(C)(C)C (centres undefined) | > 100
O=C1CC(C[C@H](O)C2CCCCC2O)CC(=O)N1Cc1ccccc1 (some centres undefined) | > 100
O=c1[nH]cc(COCCO)c(=O)[nH]1 | > 100

Tested on: XF 498 CNS
Test: growth of human tumour cells (NCI), 48 h

SMILES | TGI [µM]
CC(=O)n1c2c(c(=O)n1-c1ccccc1)S(=O)CCC2 (centres undefined) | > 100
O=C1CC(C[C@H](O)C2CCCCC2O)CC(=O)N1Cc1ccccc1 (some centres undefined) | > 100
O=c1[nH]cc(COCCO)c(=O)[nH]1 | > 100

Tested on: DLD-1 colon
Test: growth of human tumour cells (NCI), 48 h

SMILES | TGI [µM]
CC(=O)n1c2c(c(=O)n1-c1ccccc1)S(=O)CCC2 (centres undefined) | > 100
CC(=O)OC1(C#N)CC2OC1C1C2N=NN1C(=O)OC(C)(C)C (centres undefined) | > 100
O=C1CC(C[C@H](O)C2CCCCC2O)CC(=O)N1Cc1ccccc1 (some centres undefined) | > 100
O=c1[nH]cc(COCCO)c(=O)[nH]1 | > 100

Tested on: HOP-18 NSCLC
Test: growth of human tumour cells (NCI), 48 h

SMILES | TGI [µM]
CC(=O)OC1(C#N)CC2OC1C1C2N=NN1C(=O)OC(C)(C)C (centres undefined) | > 100
O=C1CC(C[C@H](O)C2CCCCC2O)CC(=O)N1Cc1ccccc1 (some centres undefined) | > 100
O=c1[nH]cc(COCCO)c(=O)[nH]1 | > 100

Tested on: OVCAR-3 ovarian
Test: growth of human tumour cells (NCI), 48 h

SMILES | TGI [µM]
CC(=O)n1c2c(c(=O)n1-c1ccccc1)S(=O)CCC2 (centres undefined) | > 100
CC(=O)OC1(C#N)CC2OC1C1C2N=NN1C(=O)OC(C)(C)C (centres undefined) | > 100
O=C1CC(C[C@H](O)C2CCCCC2O)CC(=O)N1Cc1ccccc1 (some centres undefined) | > 100
O=c1[nH]cc(COCCO)c(=O)[nH]1 | > 100

Tested on: KM12 colon
Test: growth of human tumour cells (NCI), 48 h

SMILES | TGI [µM]
CC(=O)n1c2c(c(=O)n1-c1ccccc1)S(=O)CCC2 (centres undefined) | > 100
O=C1CC(C[C@H](O)C2CCCCC2O)CC(=O)N1Cc1ccccc1 (some centres undefined) | > 100
O=c1[nH]cc(COCCO)c(=O)[nH]1 | > 100

Tested on: SW-620 colon
Test: growth of human tumour cells (NCI), 48 h

SMILES | TGI [µM]
CC(=O)n1c2c(c(=O)n1-c1ccccc1)S(=O)CCC2 (centres undefined) | > 100
CC(=O)OC1(C#N)CC2OC1C1C2N=NN1C(=O)OC(C)(C)C (centres undefined) | > 100
O=C1CC(C[C@H](O)C2CCCCC2O)CC(=O)N1Cc1ccccc1 (some centres undefined) | > 100
O=c1[nH]cc(COCCO)c(=O)[nH]1 | > 100

Tested on: M14 melanoma
Test: growth of human tumour cells (NCI), 48 h

SMILES | TGI [µM]
CC(=O)n1c2c(c(=O)n1-c1ccccc1)S(=O)CCC2 (centres undefined) | > 100
CC(=O)OC1(C#N)CC2OC1C1C2N=NN1C(=O)OC(C)(C)C (centres undefined) | 46.6
O=C1CC(C[C@H](O)C2CCCCC2O)CC(=O)N1Cc1ccccc1 (some centres undefined) | > 100
O=c1[nH]cc(COCCO)c(=O)[nH]1 | > 100

Tested on: SK-MEL-28 melanoma
Test: growth of human tumour cells (NCI), 48 h

SMILES | TGI [µM]
CC(=O)n1c2c(c(=O)n1-c1ccccc1)S(=O)CCC2 (centres undefined) | > 100
CC(=O)OC1(C#N)CC2OC1C1C2N=NN1C(=O)OC(C)(C)C (centres undefined) | 81.9
O=C1CC(C[C@H](O)C2CCCCC2O)CC(=O)N1Cc1ccccc1 (some centres undefined) | > 100
O=c1[nH]cc(COCCO)c(=O)[nH]1 | > 100

Tested on: CCRF-CEM leukemia
Test: growth of human tumour cells (NCI), 48 h

SMILES | TGI [µM]
CC(=O)n1c2c(c(=O)n1-c1ccccc1)S(=O)CCC2 (centres undefined) | 26.4
CC(=O)OC1(C#N)CC2OC1C1C2N=NN1C(=O)OC(C)(C)C (centres undefined) | > 100
O=C1CC(C[C@H](O)C2CCCCC2O)CC(=O)N1Cc1ccccc1 (some centres undefined) | > 100
O=c1[nH]cc(COCCO)c(=O)[nH]1 | > 100

Tested on: MALME-3M melanoma
Test: growth of human tumour cells (NCI), 48 h

SMILES | TGI [µM]
CC(=O)n1c2c(c(=O)n1-c1ccccc1)S(=O)CCC2 (centres undefined) | > 100
CC(=O)OC1(C#N)CC2OC1C1C2N=NN1C(=O)OC(C)(C)C (centres undefined) | 48.3
O=C1CC(C[C@H](O)C2CCCCC2O)CC(=O)N1Cc1ccccc1 (some centres undefined) | > 100
O=c1[nH]cc(COCCO)c(=O)[nH]1 | > 100

Tested on: COLO 205 colon
Test: growth of human tumour cells (NCI), 48 h

SMILES | TGI [µM]
CC(=O)n1c2c(c(=O)n1-c1ccccc1)S(=O)CCC2 (centres undefined) | > 100
CC(=O)OC1(C#N)CC2OC1C1C2N=NN1C(=O)OC(C)(C)C (centres undefined) | > 100
O=C1CC(C[C@H](O)C2CCCCC2O)CC(=O)N1Cc1ccccc1 (some centres undefined) | > 100
O=c1[nH]cc(COCCO)c(=O)[nH]1 | > 100

Tested on: A549 NSCLC
Test: growth of human tumour cells (NCI), 48 h

SMILES | TGI [µM]
CC(=O)n1c2c(c(=O)n1-c1ccccc1)S(=O)CCC2 (centres undefined) | > 100
CC(=O)OC1(C#N)CC2OC1C1C2N=NN1C(=O)OC(C)(C)C (centres undefined) | > 100
O=C1CC(C[C@H](O)C2CCCCC2O)CC(=O)N1Cc1ccccc1 (some centres undefined) | > 100
O=c1[nH]cc(COCCO)c(=O)[nH]1 | > 100

Tested on: UACC-257 melanoma
Test: growth of human tumour cells (NCI), 48 h

SMILES | TGI [µM]
CC(=O)n1c2c(c(=O)n1-c1ccccc1)S(=O)CCC2 (centres undefined) | > 100
CC(=O)OC1(C#N)CC2OC1C1C2N=NN1C(=O)OC(C)(C)C (centres undefined) | > 100
O=C1CC(C[C@H](O)C2CCCCC2O)CC(=O)N1Cc1ccccc1 (some centres undefined) | > 100
O=c1[nH]cc(COCCO)c(=O)[nH]1 | > 100

Tested on: KM20L2 colon
Test: growth of human tumour cells (NCI), 48 h

SMILES | TGI [µM]
CC(=O)n1c2c(c(=O)n1-c1ccccc1)S(=O)CCC2 (centres undefined) | > 100
CC(=O)OC1(C#N)CC2OC1C1C2N=NN1C(=O)OC(C)(C)C (centres undefined) | > 100
O=C1CC(C[C@H](O)C2CCCCC2O)CC(=O)N1Cc1ccccc1 (some centres undefined) | > 100
O=c1[nH]cc(COCCO)c(=O)[nH]1 | > 100

Tested on: HT29 colon
Test: growth of human tumour cells (NCI), 48 h

SMILES | TGI [µM]
CC(=O)n1c2c(c(=O)n1-c1ccccc1)S(=O)CCC2 (centres undefined) | > 100
CC(=O)OC1(C#N)CC2OC1C1C2N=NN1C(=O)OC(C)(C)C (centres undefined) | > 100
O=C1CC(C[C@H](O)C2CCCCC2O)CC(=O)N1Cc1ccccc1 (some centres undefined) | > 100
O=c1[nH]cc(COCCO)c(=O)[nH]1 | > 100

Tested on: ACHN renal
Test: growth of human tumour cells (NCI), 48 h

SMILES | TGI [µM]
CC(=O)n1c2c(c(=O)n1-c1ccccc1)S(=O)CCC2 (centres undefined) | > 100
CC(=O)OC1(C#N)CC2OC1C1C2N=NN1C(=O)OC(C)(C)C (centres undefined) | > 100
O=C1CC(C[C@H](O)C2CCCCC2O)CC(=O)N1Cc1ccccc1 (some centres undefined) | > 100
O=c1[nH]cc(COCCO)c(=O)[nH]1 | > 100

Tested on: A498 renal
Test: growth of human tumour cells (NCI), 48 h

SMILES | TGI [µM]
CC(=O)n1c2c(c(=O)n1-c1ccccc1)S(=O)CCC2 (centres undefined) | > 100
O=C1CC(C[C@H](O)C2CCCCC2O)CC(=O)N1Cc1ccccc1 (some centres undefined) | > 100
O=c1[nH]cc(COCCO)c(=O)[nH]1 | > 100

Tested on: NCI-H522 lung
Test: growth of human tumour cells (NCI), 48 h

SMILES | TGI [µM]
CC(=O)n1c2c(c(=O)n1-c1ccccc1)S(=O)CCC2 (centres undefined) | 16.3
CC(=O)OC1(C#N)CC2OC1C1C2N=NN1C(=O)OC(C)(C)C (centres undefined) | > 100
O=C1CC(C[C@H](O)C2CCCCC2O)CC(=O)N1Cc1ccccc1 (some centres undefined) | > 100
O=c1[nH]cc(COCCO)c(=O)[nH]1 | > 100

Tested on: OVCAR-8 ovarian
Test: growth of human tumour cells (NCI), 48 h

SMILES | TGI [µM]
CC(=O)n1c2c(c(=O)n1-c1ccccc1)S(=O)CCC2 (centres undefined) | > 100
CC(=O)OC1(C#N)CC2OC1C1C2N=NN1C(=O)OC(C)(C)C (centres undefined) | > 100
O=C1CC(C[C@H](O)C2CCCCC2O)CC(=O)N1Cc1ccccc1 (some centres undefined) | > 100
O=c1[nH]cc(COCCO)c(=O)[nH]1 | > 100

Tested on: TK-10 renal
Test: growth of human tumour cells (NCI), 48 h

SMILES | TGI [µM]
CC(=O)n1c2c(c(=O)n1-c1ccccc1)S(=O)CCC2 (centres undefined) | > 100
CC(=O)OC1(C#N)CC2OC1C1C2N=NN1C(=O)OC(C)(C)C (centres undefined) | > 100
O=C1CC(C[C@H](O)C2CCCCC2O)CC(=O)N1Cc1ccccc1 (some centres undefined) | > 100
O=c1[nH]cc(COCCO)c(=O)[nH]1 | > 100

Tested on: SNB-19 CNS
Test: growth of human tumour cells (NCI), 48 h

SMILES | TGI [µM]
CC(=O)n1c2c(c(=O)n1-c1ccccc1)S(=O)CCC2 (centres undefined) | > 100
O=C1CC(C[C@H](O)C2CCCCC2O)CC(=O)N1Cc1ccccc1 (some centres undefined) | > 100
O=c1[nH]cc(COCCO)c(=O)[nH]1 | > 100

Tested on: HCT-15 colon
Test: growth of human tumour cells (NCI), 48 h

SMILES | TGI [µM]
CC(=O)n1c2c(c(=O)n1-c1ccccc1)S(=O)CCC2 (centres undefined) | > 100
CC(=O)OC1(C#N)CC2OC1C1C2N=NN1C(=O)OC(C)(C)C (centres undefined) | 55.9
O=c1[nH]cc(COCCO)c(=O)[nH]1 | > 100
